The values that follow are results of earlier work, collected in patent US20260334526A1 (NICOVENTURES TRADING LIMITED, priority 2022, published 2026).

For data set [1] the following is noted: for solubility: fats, alcohols, water.
For data set [2] the following is noted: nicotine solution at pH=6 relative to pH 8.1; perfusion cell; Adrian et al.

For the compound `CC(/C=C/C=C(C)/C=C/C(=O)O)=C\C=C\C=C(C)\C=C\C=C(C)\C=C\C(=O)O` (stereo in doubt) [norbixin, (2E,4E,6E,8E,10E,12E,14E,16E,18E)-4,8,13,17-tetramethylicosa-2,4,6,8,10,12,14,16,18-nonaenedioic acid], the solubility result in data set [1] is on record as “water-soluble”.

`CN1CCCC1c1cccnc1` (stereo not shown) [nicotine]: the “reduction of diffusion rate across human buccal tissue (factor)” value in data set [2] was ~ 7.

On to `COC(=O)/C=C/C(C)=C\C=C\C(C)=C\C=C\C=C(C)\C=C\C=C(C)\C=C\C(=O)O` [bixin, (2E,4E,6E,8E,10E,12E,14E,16Z,18E)-20-methoxy-4,8,13,17-tetramethyl-20-oxoicosa-2,4,6,8,10,12,14,16,18-nonaenoic acid], for which, in data set [1], the solubility result was “soluble in fats and alcohols but insoluble in water”. Moreover, in data set [1] (when isolated), the chemical stability result is recorded as “chemically unstable when isolated”.
